BigSolDB 2.1

Clc1cc(Cl)cc(Cl)c1
solubility (mole fraction)
Details	in acetone	in cyclohexane	in ethyl acetate	in isobutanol	in isopropanol	in n-butanol	in n-propanol	in toluene
273.15 K	0.0419	–	0.0928	0.0246	0.0144	0.036	0.0211	0.169
275.65 K	0.0472	–	0.102	0.028	0.0167	0.0406	0.0238	0.184
278.15 K	0.0524	–	0.113	0.0321	0.0195	0.0467	0.0273	0.199
280.65 K	0.0581	0.131	0.123	0.0367	0.0225	0.0529	0.0313	0.218
283.15 K	0.0644	0.147	0.137	0.042	0.0256	0.0592	0.0359	0.24
285.65 K	0.0718	0.165	0.151	0.0478	0.0297	0.0679	0.0406	0.26
288.15 K	0.079	0.186	0.164	0.0545	0.0339	0.0767	0.0466	0.287
290.65 K	0.0876	0.207	0.179	0.0616	0.0384	0.0852	0.0532	0.311
293.15 K	0.0963	0.231	0.195	0.0708	0.0441	0.0969	0.0598	0.337
295.65 K	0.106	0.255	0.213	0.0804	0.0509	0.107	0.0677	0.368
298.15 K	0.116	0.286	0.234	0.091	0.058	0.122	0.0764	0.399
300.65 K	0.129	0.318	0.253	0.102	0.0649	0.136	0.0853	0.427
303.15 K	0.14	0.35	0.274	0.117	0.074	0.15	0.0973	0.463
305.65 K	0.154	0.391	0.298	0.131	0.0849	0.166	0.109	0.5
308.15 K	0.171	0.434	0.325	0.147	0.0969	0.185	0.122	0.539
310.65 K	0.192	0.481	0.352	0.166	0.11	0.207	0.138	0.575
313.15 K	0.213	0.528	0.38	0.191	0.127	0.233	0.158	0.619
